Like-named read-outs stand apart in the source and are kept apart here.
Tests used:
[1] = tested on: sodium channel in hTRPV1-N1E115 cells; experiment: FLIPR membrane potential assay of sodium channel response in hTRPV1-N1E115 cells, with (47° C.) or without (25° C.) heat activation of hTRPV1; type: cell-based; conditions: for hTRPV1-N1E Nav (% inhibition) 25° C., tested at 0.5 mM / hTRPV1-N1E Nav (% inhibition) 47° C., tested at 0.5 mM: 0.5 mM (stated in cell, column head 0.1 mM); for hTRPV1-N1E Nav (% inhibition) 47° C., tested at 0.5 mM / IC50: 47° C.; for IC50: read-out: hTRPV1-N1E IC50 (μM) 47° C.
Text: In one embodiment, a modified FLIPR® (Fluorometric Imaging Plate Reader) based assay system was developed which is capable of discriminating between non-specific versus hTRPV1-mediated entry of test compounds. Advantageously, the assay system utilizes heat activated opening of hTRPV1 channels followed by an assessment of internal sodium channel block. The assay allows a permanently charged compound to selectively enter through opened hTRPV1 channels and that compound's potency in inhibiting sodium channels from the cytoplasm side of the same cell can be assessed and quantified.
The assay is readily performed in multi-well assay plates into which cells in growth media are added and incubated under conditions which permit the formation of a confluent monolayer over a period of hours prior to the start of the assay. Conventional culture media and conditions may be utilized. Duplicate cell assay plates are prepared for each experiment.
The spent media from the cell seeded plates is removed on the day of the assay and replaced with Membrane potential Dye-Blue (Molecular Devices). The dye was prepared in assay buffer following manufacturer's instructions. The dye-loaded plate is incubated at room temperature (about 25° C.) for about 30 minutes in order to pre-load the cells with dye. Optionally, the cells may be loaded with the dye simultaneously with adding the test compounds.
The test compounds are diluted in the Assay Buffer and added to each well of a specific 384-well ‘compound plate’, which serves as a source plate for compound addition using the FLIPR® platform. The concentration of compounds in the compound-plate was adjusted to achieve the desired final concentration when added to the cells in the ‘cell-plate’. After completion of the dye incubation period, the dye loaded cell-plates and the compound source plates are inserted into the FLIPR® Tetra™ device with a 384 FLIPR® tip box (Molecular Devices, Inc.) according to manufacturer's instructions. The compounds are robotically added to the dye loaded cell-plates using software integral to the FLIPR® Tetra™ instrument.
Immediately following compound addition, hTRPV1 is activated, in one of the duplicate cell plates, by heating. Specifically, entire multi-well plate containing the compound-cells mixture is incubated at 47° C. for 10 minutes, after which they are returned to room temperature (about 25° C.) for a further 30 minutes. Heat activation of hTRPV1 was omitted from the replicate cell plate which was simply maintained at room temperature for the entire 40 minutes.
A membrane potential response is elicited in the dye- and compound-loaded cells by the addition of veratridine which is a known sodium channel ‘agonist’. As illustrated in an example herein, an agonist plate containing veratridine (Sigma) is prepared in advance and is inserted into suitable devices such as, e.g., the FLIPR® TETRA® device for a “2nd addition” as instructed by the manufacturer. The concentration of veratridine in the ‘agonist plate’ was adjusted to achieve a final concentration of 100 μM when added to the cells in the cell-plate. Final concentrations of veratridine greater or lesser than 100 μM may also be used but the signal measured by the FLIPR®^Tetra™ device or another suitable device may vary accordingly.
The exposure of the cells in the cell-plate to veratridine induces sodium channels in the cells to open and the resulting ion flux produces a membrane potential depolarization that is detected as a fluorescence signal by the FLIPR® ^Tetra™ Device. The activity of test compounds is determined by their ability to attenuate the veratridine-induced fluorescence signal, the most promising compounds are those that show an enhanced activity in the heat-activated cell plate over the non-heat-activated cell plate. […]

[2] = target: T1, human Nav1.5 sodium channel (Homo sapiens, UniProt Q14524); experiment: Inhibition of sodium channel response in hNav1.5-HEK293 cells (FLIPR, veratridine); type: cell-based; conditions: for IC50: average, read-out: HEK Nav 1.5 IC50 (μM) (AVG); for inhibition at 10 min, 0.5 mM / inhibition at 10 min, 1.5 mM: human, HEK-293 cells expressing human Nav1.5 (hNav1.5-HEK-293), pH 7.4; for inhibition at 10 min, 0.5 mM: read-out: HEK Nav 1.5 % inh. @ 0.5 mM; for inhibition at 10 min, 1.5 mM: read-out: HEK Nav 1.5 % inh. @ 1.5 mM
T1 construct: host or cells: HEK-293
Experimental: C. Method for Assessing the Extent of Inhibition of Sodium Channel Response with Compounds in hNav1.5-HEK293 Cells.
The following assay was used to assess the tendency of the test compounds to block the dominant cardiac sodium channel isoform. Nav1.5 sodium channels are known to be permeable to quaternary sodium channel blockers such as QX-314 and, thus, the assay was performed in the absence of a chemical TRPV1 agonist.
The hNav1.5-HEK-293 cells (CreaCell, France, a human embryonic kidney cell line expressing the human Nav1.5 sodium channel) were cultured in Growth medium (containing 1×DMEM (Gibco)+10% FBS (PAA Gold)+2% Glutamine 100 mM (Gibco)+1% penicillin 10,000 U/mL streptomycin 10,000 μg/mL (Invitrogen)+1.2 mg/mL Geneticin G418 (Invitrogen)) in […] cell bind flasks (Corning). The following steps were followed exactly as mentioned. The spent medium was discarded and the cells rinsed once with PBS-1×. Accutase® (1-2 mL; PAA) solution was added. The plate was placed on a 37° C. warming incubator 3-5 minutes. As soon as cells are detached, 37° C. complete medium (9 mL) was added. The cell suspension was drawn into a sterile pipette and cells homogenized gently to dissociate cell aggregates. The cells were counted using a hemocytometer with Blue Trypan and then centrifuged 5 minutes at 400 g. The cells can be amplified or maintained by seeding […] in a T75 flask (final volume: 15 mL). 8000 cells in 50 μL Growth medium was added to each well of 384-well, clear bottomed, sterile poly-D-lysine coated plates with lid (Greiner-bio one) inside the laminar air-flow. The plates were incubated at 37° C. and 5% CO2 in a CO2 incubator (Thermo) for 48 hours.
On the day of the assay, cells were washed with Assay buffer, which was prepared using the components and amounts in Table 4. The pH was adjusted to 7.4 with NaOH, volume made up to 500 mL with Milli-Q® water.
Assay Buffer was added to the cells and incubated at rt (25° C.) for 10 minutes. The compounds were diluted in assay buffer. The compounds were added and incubated at rt (25° C.) for 10 minutes. Red FMP Dye (MDC) was added to the cells and the plate was incubated at rt (25° C.) for 30 minutes. Veratridine stock (20 mM; Sigma) was prepared in DMSO; veratridine (final concentration of 30 μM) in assay buffer was added to each well of the cell seeded plates in the FLIPR® system and read taken for 10 minutes. Table 5 provides data illustrating the sodium channel activity of the test compounds in response to the presence or absence of heat stimulation in cells expressing hTRPV1. The compounds were tested for differential activity at 25° C. and 47° C. and at two test concentrations. Compounds showing the most promising profiles were further evaluated for IC50 in the 47° C. assay, examples are shown in Table 5.

[3] = tested on: Male Sprague Dawley (SD) rats; experiment: In vivo assay of mechanical nociception (rat pinch model, perisciatic injection); conditions: for Average Time of Analgesia: test compound 0.5%, perisciatic
[4] = 1 mM, 25° C. (no heat activation of hTRPV1)
[5] = lidocaine 0%, total injection 100 μL
[6] = lidocaine 0%, total injection 200 μL
[7] = lidocaine 2%, total injection 100 μL
[8] = lidocaine 2%, total injection 200 μL

T1 sequence (Q14524 whole entry): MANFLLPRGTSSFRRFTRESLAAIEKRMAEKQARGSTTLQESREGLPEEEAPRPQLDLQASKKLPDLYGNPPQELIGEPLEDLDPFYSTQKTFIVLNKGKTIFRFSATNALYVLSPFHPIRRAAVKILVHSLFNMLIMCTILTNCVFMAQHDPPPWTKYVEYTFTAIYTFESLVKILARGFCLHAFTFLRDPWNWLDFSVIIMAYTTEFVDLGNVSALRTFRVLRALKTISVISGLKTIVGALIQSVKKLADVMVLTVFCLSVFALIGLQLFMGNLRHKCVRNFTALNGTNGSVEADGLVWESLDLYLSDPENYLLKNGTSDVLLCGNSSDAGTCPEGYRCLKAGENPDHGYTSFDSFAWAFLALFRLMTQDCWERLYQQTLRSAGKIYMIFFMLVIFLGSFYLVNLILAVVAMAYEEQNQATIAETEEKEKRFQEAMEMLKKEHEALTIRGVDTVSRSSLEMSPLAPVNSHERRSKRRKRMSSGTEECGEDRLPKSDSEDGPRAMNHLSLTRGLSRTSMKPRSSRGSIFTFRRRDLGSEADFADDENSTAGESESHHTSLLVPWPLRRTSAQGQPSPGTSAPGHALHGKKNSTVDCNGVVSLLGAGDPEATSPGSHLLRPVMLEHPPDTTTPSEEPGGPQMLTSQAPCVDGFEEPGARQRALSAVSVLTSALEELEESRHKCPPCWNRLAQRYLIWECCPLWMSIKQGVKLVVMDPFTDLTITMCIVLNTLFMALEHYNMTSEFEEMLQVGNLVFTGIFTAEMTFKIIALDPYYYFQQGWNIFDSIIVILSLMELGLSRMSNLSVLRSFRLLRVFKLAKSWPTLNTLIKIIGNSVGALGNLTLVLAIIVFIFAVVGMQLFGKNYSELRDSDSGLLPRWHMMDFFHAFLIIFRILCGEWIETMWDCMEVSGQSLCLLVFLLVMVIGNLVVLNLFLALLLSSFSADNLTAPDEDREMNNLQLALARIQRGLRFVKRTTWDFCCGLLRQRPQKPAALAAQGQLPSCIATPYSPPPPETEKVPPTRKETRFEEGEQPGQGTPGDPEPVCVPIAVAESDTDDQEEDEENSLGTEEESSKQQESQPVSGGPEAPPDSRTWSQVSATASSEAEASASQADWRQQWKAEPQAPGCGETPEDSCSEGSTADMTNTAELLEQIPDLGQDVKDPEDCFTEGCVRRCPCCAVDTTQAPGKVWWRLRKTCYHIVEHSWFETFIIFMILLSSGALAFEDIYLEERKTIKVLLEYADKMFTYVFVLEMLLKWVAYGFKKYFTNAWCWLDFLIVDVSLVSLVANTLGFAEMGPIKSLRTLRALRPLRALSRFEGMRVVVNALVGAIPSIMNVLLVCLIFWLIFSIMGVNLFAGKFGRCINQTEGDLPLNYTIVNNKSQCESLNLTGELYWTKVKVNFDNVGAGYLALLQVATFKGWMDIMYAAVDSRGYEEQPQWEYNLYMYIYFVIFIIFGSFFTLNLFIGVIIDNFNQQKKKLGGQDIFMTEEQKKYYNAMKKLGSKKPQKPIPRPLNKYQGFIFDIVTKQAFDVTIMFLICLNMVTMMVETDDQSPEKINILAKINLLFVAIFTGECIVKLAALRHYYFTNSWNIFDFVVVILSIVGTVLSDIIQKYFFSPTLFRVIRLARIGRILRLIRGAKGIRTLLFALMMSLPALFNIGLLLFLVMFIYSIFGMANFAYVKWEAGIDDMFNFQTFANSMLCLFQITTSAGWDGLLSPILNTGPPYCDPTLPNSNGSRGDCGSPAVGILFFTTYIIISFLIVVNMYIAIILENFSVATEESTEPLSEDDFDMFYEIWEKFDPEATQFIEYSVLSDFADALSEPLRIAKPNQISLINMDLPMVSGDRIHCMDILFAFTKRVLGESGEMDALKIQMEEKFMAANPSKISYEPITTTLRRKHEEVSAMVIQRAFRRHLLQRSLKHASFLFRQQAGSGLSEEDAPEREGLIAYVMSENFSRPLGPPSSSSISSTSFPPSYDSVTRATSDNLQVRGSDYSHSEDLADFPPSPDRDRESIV

Row | SMILES | hTRPV1-N1E Nav (% inhibition) 25° C., tested at 0.5 mM [1] | hTRPV1-N1E Nav (% inhibition) 47° C., tested at 0.5 mM [1] | hTRPV1-N1E Nav 1 mM (% inhibition) 25° C. [1, 4] | IC50 ([1]; numeric values) | IC50 [2] | inhibition at 10 min, 0.5 mM [2] | inhibition at 10 min, 1.5 mM [2] | Average Time of Analgesia [3, 5] | Average Time of Analgesia [3, 6] | Average Time of Analgesia [3, 7] | Average Time of Analgesia [3, 8] | hTRPV1-N1E Nav 0.1 mM (% inhibition) 25° C. ([1]; 0.1 mM, 25° C. (no heat activation of hTRPV1)) | hTRPV1-N1E Nav 0.1 mM (% inhibition) 47° C. ([1]; 0.1 mM, 47° C. (heat activation of hTRPV1)) | hTRPV1-N1E Nav 1 mM (% inhibition) 47° C. ([1]; 1 mM, 47° C. (heat activation of hTRPV1)) | analgesic effects in the absence of lidocaine ([3]; absence of lidocaine) | IC50 ([1]; class symbols)
1 | CC[N+]1(CC)CCCC[C@H]1CCN(c1ccccc1)C1Cc2ccccc2C1.[I-] [Example 2, (S)-1,1-diethyl-2-[2-((indan-2-yl)(phenyl)amino)ethyl]piperidinium iodide] | 44% | 89 (N = 2, 0.5 mM) % | 50 (N = 2) % | 9 µM | 247 µM | 89.2% | 98.1% | 0 h | 4 h | 10 h | >14 h |  |  |  |  | 
2 | C[N+]1(C)CCCCC1CN(c1ccccc1)C1Cc2ccccc2C1.[I-] (centres unmarked) [Example 3, 1,1-dimethyl-2-[((indan-2-yl)(phenyl)amino)methyl]piperidinium iodide] |  |  | 23 (N = 2) % | 37 µM | 190 µM | 77.6% | 99.1% | 4 h | 9 h | 12 h | >15 h | 16% | 67 (N = 2) % | 60 (N = 2) % | analgesic effects of significant duration | 
3 | C[N+]1(C)CCCC[C@H]1CCN(c1ccccc1)C1Cc2ccccc2C1.[I-] [Example 9, (S)-1,1-Dimethyl-2-[2-((indan-2-yl)(phenyl)amino)ethyl]piperidinium iodide] | 16% | 77 (N = 2, 0.5 mM) % |  |  | 647 µM | 72.4% | 97.2% |  |  | 5 h |  |  |  |  |  | 10 to 100 µM
4 | C[N+]1(C)CCCC[C@@H]1CCN(c1ccccc1)C1Cc2ccccc2C1.[I-] [Example 10, (R)-1,1-Dimethyl-2-[2-((indan-2-yl)(phenyl)amino)ethyl]piperidinium iodide] | 24% | 91 (N = 2, 0.5 mM) % | 6.5 (N = 2) % |  | 667 µM | 76.1% | 97.6% |  |  |  |  |  |  |  |  | 10 to 100 µM
